The results in this text go back to patent US12649734B2, “Bioavailable protein disulfide isomerase inhibitors” (THE CLEVELAND CLINIC FOUNDATION, priority 2020, dated 2026).

In one assay the target is PDIA1 (Homo sapiens, UniProt P07237). The assay is described as follows: PDIA1 activity assay, di-E-GSSG reduction (fluorescence). It is filed as biochemical. On the set-up: His6 (6xHN, pET6xHN-N vector) (N); made in house; host or cells: Escherichia coli BL21 (DE3) NiCo. To be noted: di-EGGS assay; read-out: inactivation constant, Kinact for PDIA1. As to the method:
PDI activity: All PDI activity assays were performed using two different substrates, insulin and di-eosin-diglutathione (di-E-GSSG) as described earlier (Vatolin et al., Ibid) with brief modifications. PDIA1 (1 μM) was incubated for 1 h with varying concentrations of PDIA1 inhibitors 642 or 642-34 (0.1, 03, 1, 5, 10, or 20 μM) in 100 mM sodium phosphate pH 7.0, 2 mM EDTA, and 1% DMSO. Bovine insulin (100 μM) and DTT (1 mM) were added to initiate the reaction. Kinetic readings were taken every minute for 2 h at 650 nm absorbance using a BioTek Synergy plate reader (BioTek Instruments, Inc., Winooski, VT, USA). For highly sensitive fluorescence-based assays, di-E-GSSG as a pseudo substrate was utilized to access the activity of PDIA1. Raturi, A.; Mutus, B., Free. Radic. Biol. Med., 43, 62-70 (2007) Known concentrations of recombinant PDIA1 were mixed with 10 mM GSH and incubated at 37° C. for 30 min in 150 mM K2HPO4/KH2PO4 (pH 7.1) buffer solution. PDI inhibitor was added into the mixture and incubated for an additional 30 min at 37° C. […] Synergy H1 plate reader (BioTek, WI, USA) was used for kinetic analysis using excitation at 518 nm, emission at 545 nm, reads of 0.1 sec/well every minute at 25° C. for 1 h. Baseline fluorescence was determined from di-E-GSSG reactions without PDI and GSH. […]

The test system of the next assay is MM1.S cells. The assay is described as follows: Cell viability assay (CellTiter-Glo), MM1.S. It is filed as cell-based, human. As to conditions: MM cells, in vitro cell culture. As to the method: Cell vi-ability and LD50 for inhibitors were measured in 96 well culture plates (2×10^4 cells/well) after 72 h of treatment using CellTiter-Glo® Luminescent Cell Viability Assay (Promega, Madison, WI, USA). (A) Cell survival assay with MM1.S.luc and BTZ-resistant MM1.S.luc cells. […] (C) Comparison of PDIA1 protein levels in MM1.S.luc and MM1.S.luc BTZ-resistant cells. Band intensity was calculated with Image Lab Version 5.2.1. (D) Cell survival assay with 5TGM1.luc and (E) BTZ-resistant 5TGM1.luc cells. (F) MM1.S cell line was exposed to CCF642-34, and BTZ for 72 h for synergistic drug combination test according to Chou and Talalay method. If the […] remained less than 1, the two drugs were determined as synergistic. […] The number of colony-forming units were plotted for each treatment.
Cell viability assay: Cell viability was measured in 96 well culture plates (2×10^4 cells/well) using CellTiter-Glo® Luminescent Cell Viability Assay (Promega, Madison, WI, USA) according to the manufacturer's protocol.

In assay [1] the test system is myeloma cells (MM1.S, MM1.S.LUC, BTZ-resistant MM1.S.LUC). The assay is described as follows: ROS detection (carboxy-H2DCFDA). The format is cell-based, human. To be noted: 2.5 μM, peaking between 2-3 h. Here is the method: ROS detection: MM1.S, MM1.S.LUC, and BTZ-resistant MM1.S.LUC cells were washed with DPBS and treated with 5 μM carboxy-H2DCFDA (Molecular Probes) for 45 min at 37° C. The cells were then washed 3 times in DPBS and followed by 2.5 μM CCF642-34 treatment up to 4 h. After the incubation, the cells were washed 3 times and the intracellular ROS was quantified (excitation=493 nm; […]) using a BioTek Synergy plate reader (BioTek Instruments, Inc., Winooski, VT, USA).

Chain of PDIA1 (P07237 18-508): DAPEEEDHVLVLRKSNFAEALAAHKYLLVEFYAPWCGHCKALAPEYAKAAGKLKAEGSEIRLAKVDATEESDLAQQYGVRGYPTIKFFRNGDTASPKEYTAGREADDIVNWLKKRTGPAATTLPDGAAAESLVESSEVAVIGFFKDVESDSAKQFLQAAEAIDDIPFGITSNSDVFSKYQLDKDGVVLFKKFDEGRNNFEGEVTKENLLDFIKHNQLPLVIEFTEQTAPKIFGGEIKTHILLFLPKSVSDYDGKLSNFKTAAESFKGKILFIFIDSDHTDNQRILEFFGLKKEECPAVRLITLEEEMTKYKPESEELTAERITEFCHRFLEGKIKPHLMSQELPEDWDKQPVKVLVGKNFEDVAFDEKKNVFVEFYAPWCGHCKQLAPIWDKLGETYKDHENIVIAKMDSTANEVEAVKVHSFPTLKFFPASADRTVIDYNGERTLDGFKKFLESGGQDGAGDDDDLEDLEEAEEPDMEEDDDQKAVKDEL

With `NC(CC1CNc2ccccc21)C(=O)NCCCOc1ccc(N2C(=O)/C(=C/c3ccc([N+](=O)[O-])s3)SC2=S)cc1` (stereo not drawn) [CCF642-34], the KI (inactivation) at PDIA1 was 88 ± 2.8 nM. In the assay on MM1.S cells, the “higher potency compared to CCF642” value was around 2 fold. Besides, the “increase of reactive oxygen species (ROS)” value in assay [1] is 4-6 fold.
